Reference: ChEMBL document CHEMBL2010682, “Asperolides A-C, tetranorlabdane diterpenoids from the marine alga-derived endophytic fungus Aspergillus wentii EN-48” (J Nat Prod, 2012)
Values after ≈ are worked out from the molar mass of the structure shown. Active and inactive are the calls of the source. No cut-off for these calls is given here.

Tests used:
[1] = system: Candida albicans; test: Antifungal activity against Candida albicans after 18 hrs by broth microdilution method; assay type: functional
[2] = system: MCF7; test: Cytotoxicity against human MCF7 cells; assay type: functional, cell-based
[3] = system: HepG2; test: Cytotoxicity against human HepG2 cells; assay type: functional, cell-based
[4] = system: NCI-H460; test: Cytotoxicity against human NCI-H460 cells; assay type: functional, cell-based
[5] = system: HeLa; test: Cytotoxicity against human HeLa cells; assay type: functional, cell-based
[6] = system: MDA-MB-231; test: Cytotoxicity against human MDA-MB-231 cells; assay type: functional, cell-based
[7] = system: SW1990; test: Cytotoxicity against human SW1990 cells; assay type: functional, cell-based
[8] = system: SMMC-7721; test: Cytotoxicity against human SMMC7721 cells; assay type: functional, cell-based
[9] = system: Staphylococcus epidermidis; test: Antibacterial activity against Staphylococcus epidermidis after 18 hrs by broth microdilution method; assay type: functional
[10] = system: Pseudomonas fluorescens; test: Antibacterial activity against Pseudomonas fluorescens after 18 hrs by broth microdilution method; assay type: functional
[11] = system: Pseudomonas aeruginosa; test: Antibacterial activity against Pseudomonas aeruginosa after 18 hrs by broth microdilution method; assay type: functional
[12] = system: Staphylococcus aureus; test: Antibacterial activity against methicillin-resistant Staphylococcus aureus after 18 hrs by broth microdilution method; assay type: functional
[13] = Homo sapiens, MCF7, read-out: IC50
[14] = Homo sapiens, NCI-H460, read-out: IC50
[15] = Homo sapiens, HeLa, read-out: IC50
[16] = Homo sapiens, MDA-MB-231, read-out: IC50
[17] = Homo sapiens, SW1990, read-out: IC50
[18] = Homo sapiens, SMMC-7721, read-out: IC50
[19] = Homo sapiens, HepG2, read-out: IC50

Molecule | MIC [1] | IC50 [2, 13] [µM] | IC50 ([3]; hepg2) | IC50 [4, 14] [µM] | IC50 [5, 15] [µM] | IC50 [6, 16] [µM] | IC50 [7, 17] [µM] | IC50 [8, 18] [µM] | IC50 [3, 19] [µM] | also measured
C[C@]12C(=O)O[C@@H]3C=C4COC(=O)C=C4[C@@](C)(C=C[C@@H]1O)[C@@H]32 | 16 µg/mL (≈ 55.5 µM) | 38 | Not Active | 42 | 63 | 42 | 63 |  |  | 
C=C1[C@@H](O)C[C@@H]2[C@](C)(CCC[C@]2(C)C(=O)O)[C@H]1CC(=O)O | inactive |  | Not Active |  |  |  |  |  |  | IC50 ([2]; mcf7): Not Active; IC50 ([8]; smmc-7721): Not Active; IC50 ([4]; nci-h460): Not Active; IC50 ([5]; hela): Not Active; IC50 ([6]; mda-mb-231): Not Active; IC50 ([7]; sw1990): Not Active
CC1(C)S[C@@H]2[C@H](NC(=O)[C@H](N)c3ccccc3)C(=O)N2[C@H]1C(=O)O [AMPICILLIN] |  |  |  |  |  |  |  |  |  | MIC [9]: 4 µg/mL (≈ 11.4 µM); MIC [10]: 2 µg/mL (≈ 5.72 µM); MIC [11]: 4 µg/mL (≈ 11.4 µM); MIC [12]: 8 µg/mL (≈ 22.9 µM)
C[C@]12C3=CC(=O)OCC3=C[C@H]3OC(=O)[C@@](C)(C=C[C@H]1O)[C@H]32 [ASPEROLIDE A] | inactive |  |  | 42 | 97 |  | 69 | 52 | 63 | IC50 ([2]; mcf7): Not Active
C[C@@]12C3=CC(=O)OCC3=C[C@H]3OC(=O)[C@](C)([C@H]31)[C@H]1O[C@H]1[C@H]2O [ASPEROLIDE B] |  | 63 | Not Active | 63 | 56 | 35 | 69 |  |  | 
COc1cccc2c1C(=O)c1c(O)c3c(c(O)c1C2=O)C[C@@](O)(C(=O)CO)C[C@@H]3O[C@H]1C[C@H](N)[C@H](O)[C@H](C)O1 [DOXORUBICIN] |  | 7 |  |  | 5 | 4 |  | 172 | 7 | 
O=c1[nH]cc(F)c(=O)[nH]1 [FLUOROURACIL] |  |  |  | 8 | 108 | 62 | 123 | 15 | 108 | 
C[C@@]12C3=CC(=O)OCC3=C[C@H]3OC(=O)[C@](C)([C@H]31)[C@@H](O)[C@H]1O[C@H]12 [WENTILACTONE A] | inactive | 69 |  | 28 | 52 |  | 42 | 28 | 35 | 
C[C@@]12C[C@@H](O)C[C@]3(C)C4=CC(=O)OCC4=C[C@@H](OC1=O)[C@@H]23 [WENTILACTONE B] | inactive | 56 |  | 24 | 42 |  | 24 | 17 | 38 | 
NYSTATIN | 2 µg/mL |  |  |  |  |  |  |  |  | 
